In US20230181678A1, “NOVEL ANTIBACTERIAL PEPTIDE OR PEPTIDE ANALOG AND USE THEREOF” (CAMP THERAPEUTICS INC., priority 2020, published 2023):
Square brackets hold non-standard residues; d marks the D form. * marks the point of attachment. Octanoyl = CCCCCCCC(=O)*; Dab = NCC[C@H](N)C(=O)O; Hexanoyl = CCCCCC(=O)*

Legend:
[1] = test system: Acinetobacter baumannii ATCC 17978; assay: MIC assay, sensitizing effect of peptide on antibiotics; type: cell-based; details: for sensitizing ability to erythromycin and novobiocin: recap of Example 1; for MIC reduction effect (fold reduction) of erythromycin: peptide 0.4 uM with erythromycin vs erythromycin alone
Experimental: Each peptide at a concentration of 0.4 uM was used together with the two gram-positive antibiotics erythromycin and novobiocin to identify their effect on Acinetobacter baumannii ATCC 17978 (MIC assay). Acinetobacter baumannii, which is Gram-negative bacteria commonly classified as an opportunistic pathogen, is a human-infecting bacterium with a high probability of nosocomial infection because it has broad-spectrum antibacterial resistance and is able to survive for a long time even in a low-humidity environment. For each of the gram-positive antibiotics, as compared with MIC of each antibiotic in a case of being used alone, fold reduction of MIC of each antibiotic was measured in a case where each antibiotic was used together with each peptide.
All MIC assay experiments were performed using the Clinical and Laboratory Standards Institute (CLSI) guidelines (Clinical & Laboratory Standards Institute: CLSI Guidelines, 2017). […] The cells were inoculated at 1.5×10^5 CFU per 200 μL solution of each well in a 96-well plate. The peptide and the antibiotic were prepared using 2-fold serially diluted concentrations. […] Incubation was performed at 37° C. for 18 hours, and then absorbance was measured at 600 nm using an EPOCH2 microplate reader (BioTek, Winooski, USA) to calculate a MIC value. […] Fold reduction was calculated using the following expression.
(§1) Fold reduction=MIC of antibiotic alone/MIC of antibiotic in presence of sensitizing peptide
The same MIC assay method as in Example 3 was used.
(§2) ATCC 25922, A.b. ATCC 17978, K.p. ATCC 700603, and P.a. ATCC 27853, or CRE (E.c. NDM-1, K.p. NDM-1, or K.p. KPC) (FIGS. 9 and 10).

host cells = details: cited from earlier work
Gram-negative bacteria = details: cited from earlier work
[2] = test system: Acinetobacter baumannii ATCC 17978; assay: MIC assay, sensitizing effect of peptide on antibiotics; type: cell-based
K.p. ATCC 700603 = assay: MIC assay, sensitizing effect of peptide on rifampicin; type: cell-based, Klebsiella pneumoniae; details: FIG. 9C, peptide 4 ug/ml
Experimental: (§3) All MIC assay experiments were performed using the Clinical and Laboratory Standards Institute (CLSI) guidelines (Clinical & Laboratory Standards Institute: CLSI Guidelines, 2017). Bacterial cells cultured overnight were diluted to 0.05 McFarland standard using McFarland (KIT […] PLUS INSTRUMENT, Biomerieux) in Muller Hinton II Broth (cation-adjusted) (Difco). The cells were inoculated at 1.5×10^5 CFU per 200 μL solution of each well in a 96-well plate. The peptide and the antibiotic were prepared using 2-fold serially diluted concentrations. […] Incubation was performed at 37° C. for 18 hours, and then absorbance was measured at 600 nm using an EPOCH2 microplate reader (BioTek, Winooski, USA) to calculate a MIC value. The MIC value was defined as a concentration of the antibiotic or peptide at which bacterial growth was inhibited to a level of lower than 10% growth of the positive control. Fold reduction was calculated using the following expression.
as §2

E. coli clinical strains = assay: MIC50 and MIC90 in clinical strains with CMP1709 (colistin); type: cell-based; details: CMP1709 4 ug/ml with colistin vs colistin alone; results not shown
Description: (§4) The selected clinical strains E. coli, K. pneumoniae, E. cloacae, C. freundii, and S. marcescens were all carbapenem-resistant strains, and the selected clinical strain P. aeruginosa included 43 strains of imipenem- and meropenem-resistant strains, and 60 strains of imipenem- and meropenem-sensitive strains.
(§5) The results are illustrated in FIG. 11 (results not shown for colistin). The “Fold reduction of MIC90” in FIG. 11 indicates a MIC90 value observed in a case where the antibacterial agent was used in combination with CMP1709 as compared with a case where the antibacterial agent was used alone.

[3] = test system: E. cloacae clinical strains; assay: as above; type: cell-based; details: CMP1709 4 ug/ml with colistin vs colistin alone; results not shown
Description: as §4, §5

E. coli ATCC 25922 = assay: MIC assay, sensitizing effect of peptide on antibacterial agents; type: cell-based
Experimental: as §3, §1
Using the same MIC assay method as in Example 1, sensitizing effects of the peptide L9P (CMP1107, 1 ug/ml), which is known as a conventional sensitive AMP, and CMP1401 (1 ug/ml) were compared on existing antibacterial agents against E. coli ATCC 25922 (FIG. 5A).
In addition, MIC screening was used to compare sensitizing effects of the competitive drug SPR741 and the peptide CMP1401 or CMP1501 on the existing antibacterial agents against E. coli ATCC 25922 (FIGS. 5B and 5C). SPR741, which is a previously known polymyxin B (PMB) analog, is a sensitive AMP, and is a drug that has been identified through preclinical experiments to be effective against Gram-negative bacteria in a case of being used together with existing Gram-positive antibiotics.
as §2

P.a. ATCC 27853 = assay: MIC assay, sensitizing effect of peptide on rifampicin or colistin; type: cell-based, Pseudomonas aeruginosa; details: peptide 4 ug/ml
Experimental: as §3, §2

Kp NDM-1 = assay: MIC assay, sensitizing effect of peptide on rifampicin (CRE); type: cell-based, Klebsiella pneumoniae; details: FIG. 9F; Kp NDM-1 (CRE); peptide 4 ug/ml
Experimental: as §3, §2

[4] = test system: E.c. ATCC 25922, A.b. ATCC 17978, K.p. ATCC 700603, P.a. ATCC 27853, or CRE (E.c. NDM-1, K.p. NDM-1, or K.p. KPC); assay: MIC assay, comparison with L9P on rifampicin or colistin; type: cell-based; details: FIGS. 9 and 10
Experimental: as §3, §2

Ec NDM-1 = assay: MIC assay, sensitizing effect of peptide on rifampicin (CRE); type: cell-based, E. coli; details: FIG. 9E; Ec NDM-1 (CRE); peptide 4 ug/ml
Experimental: as §3, §2

E. coli NDM-1 = assay: Neutropenic mouse thigh infection model; type: in vivo
K.p. KPC = assay: MIC assay, sensitizing effect of peptide on rifampicin or colistin (CRE); type: cell-based, Klebsiella pneumoniae; details: peptide 4 ug/ml
Experimental: as §3, §2

[5] = test system: inner membrane of E. coli ATCC 25922; assay: Enzyme assay, inner membrane leakage (β-galactosidase release, ONPG); type: cell-based; details: 1.5 mM ONPG
Experimental: (§6) It was observed, through an enzyme assay, whether the sensitizing peptide destroyed the outer and inner membranes of Gram-negative bacteria. In the presence of the sensitizing peptide, it was observed whether in a case where 1.5 mM ONPG was used together therewith, β-galactosidase was released from E. coli ATCC 25922 for the inner membrane, and whether in a case where 200 μM CENTA was used together therewith, β-lactamase was released from E. coli NDM-1 for the outer membrane.
To determine leakage of the inner membrane, release of the cytoplasmic enzyme β-galactosidase was evaluated. The bacteria were diluted to OD600=1 and 1.5 mM ONPG (O-nitrophenyl-β-D-galactopyranoside) was added. Absorbance of a product of enzyme reaction was measured at 420 nm. The other procedures were carried out in the same manner as in the experiment for outer membrane destruction.

[6] = test system: outer membrane of E. coli NDM-1; assay: Enzyme assay, outer membrane leakage (β-lactamase release, CENTA); type: cell-based; details: peptide 0.63 or 1.30 uM, 37° C., 1 h; 200 μM CENTA
Experimental: as §6
Specifically, to determine leakage of the outer membrane, activity of the β-lactamase released from the outer membrane was evaluated. New Delhi metallo-β-lactamase-1 (NDm-1)-producing E. coli cells were washed three times with DPBS and suspended in the same buffer. The cells were diluted to an OD600 of 0.2 and treated with the peptide at a concentration of 0.63 or 1.30 uM at 37° C. for 1 h. After centrifugation, the supernatant was incubated with 200 μM CENTATM β-lactamase substrate at 37° C. for 1 hour. An optical density was obtained by measuring absorbance of a product of enzyme reaction at 405 nm using a microplate reader (Molecular Devices Co., Menlo Park, Calif.).
The results are illustrated in FIGS. 12A and 12B. The y-axis is absorbance measured at 405 nm, and higher absorbance is observed as a higher amount of β-lactamase is released due to destruction of the membrane.

Ac-AKLLKLLKKPLKLLK-NH2 [CMP1301]
sensitizing ability to erythromycin and novobiocin [1]: excellent sensitizing ability

Ac-KKALKLLKKPLKLLK-NH2 [CMP1303]
MIC reduction effect (fold reduction) of erythromycin [1]: 8 times

Ac-KKLLKLAKKPLKLLK-NH2 [CMP1307]
MIC reduction effect (fold reduction) of erythromycin [1]: 8 times | sensitizing ability to erythromycin and novobiocin [1]: excellent sensitizing ability

Ac-KKLLKLLKKPLKLLK-NH2 [CMP1203]
MIC reduction effect (fold reduction) of erythromycin [1]: two times

Ac-KLLKLLKKPLKLLK-NH2 [CMP1107]
toxicity to host cells (host cells): low toxicity to host cells | efficacy against E. coli (Gram-negative bacteria; Korean Patent No. 1811437): weak efficacy against E. coli | destruction of membranes of Gram-negative bacteria (known property) (Gram-negative bacteria; previously known sensitizing peptide): known to not destroy the membranes of Gram-negative bacteria

HexA-KKALKLAKKPLKLLK-NH2 (Hexanoyl-KKALKLAKKPLKLLK-NH2) [CMP1406]
sensitizing effect for fusidic acid ([2]; peptide 0.31 μM, vs fusidic acid alone): 32 times | sensitizing effect for novobiocin ([2]; peptide 0.31 μM, vs novobiocin alone): 8 times | sensitizing effect for rifampicin ([2]; peptide 0.31 μM, vs rifampicin alone): 8 times

OctA-DabDabAFDabVADabDabPLSLLDab-NH2 (Octanoyl-[Dab][Dab]AF[Dab]VA[Dab][Dab]PLSLL[Dab]-NH2; SMILES CCCCCCCC(=O)N[C@@H](CCN)C(=O)N[C@@H](CCN)C(=O)N[C@@H](C)C(=O)N[C@@H](Cc1ccccc1)C(=O)N[C@@H](CCN)C(=O)N[C@H](C(=O)N[C@@H](C)C(=O)N[C@@H](CCN)C(=O)N[C@@H](CCN)C(=O)N1CCC[C@H]1C(=O)N[C@@H](CC(C)C)C(=O)N[C@@H](CO)C(=O)N[C@@H](CC(C)C)C(=O)N[C@@H](CC(C)C)C(=O)N[C@@H](CCN)C(N)=O)C(C)C) [CMP1709]
Decreased MIC value of rifampicin at peptide concentration of 4 ug/ml (K.p. ATCC 700603): 0.0078 µg/mL | sensitizing effect with colistin (E. coli clinical strains): two times | sensitizing effect with colistin [3]: two times | Decreased MIC value of rifampicin at peptide concentration of 4 ug/ml (E. coli ATCC 25922; FIG. 9A, E.c. ATCC 25922, peptide 4 ug/ml): 0.0020 µg/mL | Decreased MIC value of colisitin at peptide concentration of 4 ug/ml (E. coli ATCC 25922; FIG. 10A, E.c. ATCC 25922, peptide 4 ug/ml): 0.016 µg/mL | Decreased MIC value of rifampicin at peptide concentration of 4 ug/ml (P.a. ATCC 27853; FIG. 9D): 0.25 µg/mL | Decreased MIC value of colisitin at peptide concentration of 4 ug/ml (P.a. ATCC 27853; FIG. 10B): 0.063 µg/mL | Decreased MIC value of rifampicin at peptide concentration of 4 ug/ml (Kp NDM-1): 0.0078 µg/mL | sensitizing effect on rifampicin or colistin compared with L9P [4]: very good sensitizing effect | Decreased MIC value of rifampicin at peptide concentration of 4 ug/ml (Ec NDM-1): 0.0040 µg/mL | decrease in number of colonies compared with rifampicin alone (E. coli NDM-1; CMP1709 75 mg/kg in the presence of 20 mg/kg of rifampicin): 8.7 fold | number of colonies, peptide administered alone (E. coli NDM-1; CMP1709 alone): No changes were observed in the number of colonies | therapeutic efficacy of combination therapy with rifampicin (E. coli NDM-1; rifampicin and CMP1709): excellent therapeutic efficacy | Decreased MIC value of rifampicin at peptide concentration of 4 ug/ml (K.p. KPC; FIG. 9G): 0.0078 µg/mL | Decreased MIC value of colisitin at peptide concentration of 4 ug/ml (K.p. KPC; FIG. 10C): 0.50 µg/mL | Decreased MIC value of rifampicin at peptide concentration of 4 ug/ml ([2]; FIG. 9B, A.b. ATCC 17978, peptide 4 ug/ml): 0.078 µg/mL

OctA-DabDabALDabLADabDabPLDabLLDab-NH2 [CMP1501]
sensitizing effect on existing antibacterial agents compared with SPR741 (E. coli ATCC 25922; FIGS. 5B and 5C): almost the same or much better sensitizing effect | sensitizing effects on rifampicin and linezolid (E. coli ATCC 25922; peptide 0.5 ug/ml): excellent sensitizing effects | sensitizing effect compared with SPR741 at half its concentration (E. coli ATCC 25922; peptide concentration decreased by half as compared with SPR741, FIG. 5C): equal or superior effect

OctA-KKLLKLLKKPLKLLK-NH2 (Octanoyl-KKLLKLLKKPLKLLK-NH2; SMILES CCCCCCCC(=O)N[C@@H](CCCCN)C(=O)N[C@@H](CCCCN)C(=O)N[C@@H](CC(C)C)C(=O)N[C@@H](CC(C)C)C(=O)N[C@@H](CCCCN)C(=O)N[C@@H](CC(C)C)C(=O)N[C@@H](CC(C)C)C(=O)N[C@@H](CCCCN)C(=O)N[C@@H](CCCCN)C(=O)N1CCC[C@H]1C(=O)N[C@@H](CC(C)C)C(=O)N[C@@H](CCCCN)C(=O)N[C@@H](CC(C)C)C(=O)N[C@@H](CC(C)C)C(=O)N[C@@H](CCCCN)C(N)=O) [CMP1407]
destruction of inner membrane (β-galactosidase release) [5]: did not destroy these membranes | destruction of outer membrane (β-lactamase release) [6]: did not destroy these membranes
